The values below come from patent US8450325B2, “Methods for reducing the recurrence of cardiac arrhythmia” (ChanRx Corp., priority 2002, dated 2013).

The target of one series is T1, rKv4.3 (Ito) channel (Rattus norvegicus, UniProt Q62897).
T1 sequence (Q62897 1-655): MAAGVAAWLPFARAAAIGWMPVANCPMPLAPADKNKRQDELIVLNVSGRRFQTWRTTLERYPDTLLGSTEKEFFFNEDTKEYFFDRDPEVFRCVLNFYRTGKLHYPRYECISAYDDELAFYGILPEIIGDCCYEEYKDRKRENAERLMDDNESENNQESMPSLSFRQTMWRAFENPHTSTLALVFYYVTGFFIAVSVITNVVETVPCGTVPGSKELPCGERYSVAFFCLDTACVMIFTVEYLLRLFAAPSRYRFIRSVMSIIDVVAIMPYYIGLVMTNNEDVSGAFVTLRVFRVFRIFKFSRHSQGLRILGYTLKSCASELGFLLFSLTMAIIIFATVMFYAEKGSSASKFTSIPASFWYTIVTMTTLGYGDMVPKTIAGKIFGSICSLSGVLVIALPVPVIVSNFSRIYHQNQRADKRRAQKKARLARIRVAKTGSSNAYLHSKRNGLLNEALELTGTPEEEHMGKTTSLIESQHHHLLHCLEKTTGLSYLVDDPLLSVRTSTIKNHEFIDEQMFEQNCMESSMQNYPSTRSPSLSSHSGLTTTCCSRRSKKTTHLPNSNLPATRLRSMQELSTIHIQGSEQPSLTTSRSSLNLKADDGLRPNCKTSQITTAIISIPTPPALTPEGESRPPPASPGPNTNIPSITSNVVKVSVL
Briefly: voltage clamp current block, rKv4.3 channel in stably transfected mammalian cells. The series is classed as cell-based. As to conditions: Ito (rKv4.3); 0.067 Hz, 4 bpm.

The conditions of series [1]: 100 mg doses for 1 week; cited from earlier work.
For a further series, the target named is hHNa ion channel (Homo sapiens, UniProt Q14524). The series can be described thus: voltage clamp current block, hHNa channel in stably transfected mammalian cells. Type of series: cell-based. To be noted: 0.1 Hz, 6 bpm. From the text: (§1) Nonlinear least squares fits of the current ratio data yielded the best fit value for the IC50 concentration. A positive control was included for each channel tested in the study.

Series [2] deals with hKvLQT1/hminK (IKs) channel (Homo sapiens, UniProt P51787). The series can be described thus: voltage clamp current block, hKvLQT1/hminK channel in stably transfected mammalian cells. To be noted: 0.067 Hz, 4 bpm, unit inferred; read-out: IC50, block of IKs (hKvLQT1/hminK) channels. The series is classed as cell-based.
Another series addresses hERG (IKr) channel (Homo sapiens, UniProt Q12809). Briefly: in vitro.
Source text: as §1

Series [3] concerns the target T2, native cardiac L-type calcium channel (gpCaCh, ICa,L) (Cavia porcellus, UniProt O35505).
T2 construct: native cardiac L-type calcium channel expressed in guinea pig cardiomyocytes; endogenous in cells; host or cells: guinea pig cardiomyocytes
The series can be described thus: voltage clamp current block, native cardiac L-type calcium channel in guinea pig cardiomyocytes. Type of series: cell-based. To be noted: 0.05 Hz, 3 beats per minute.

A further series deals with hKv1.5 channel (Homo sapiens, UniProt P22460). The series can be described thus: voltage clamp current block, hKv1.5 channel in stably transfected mammalian cells. Type of series: cell-based. To be noted: 0.1 Hz, 6 bpm.
Another series deals with dog Purkinje fibers. Briefly: duration of the cardiac action potential in dog Purkinje fibers. On the set-up: dose or concentration left out as unconfirmed.

Structures are written as SMILES. “Also recorded” adds a separate entry of the source.

hHNa ion channel, sequence (Q14524 whole entry): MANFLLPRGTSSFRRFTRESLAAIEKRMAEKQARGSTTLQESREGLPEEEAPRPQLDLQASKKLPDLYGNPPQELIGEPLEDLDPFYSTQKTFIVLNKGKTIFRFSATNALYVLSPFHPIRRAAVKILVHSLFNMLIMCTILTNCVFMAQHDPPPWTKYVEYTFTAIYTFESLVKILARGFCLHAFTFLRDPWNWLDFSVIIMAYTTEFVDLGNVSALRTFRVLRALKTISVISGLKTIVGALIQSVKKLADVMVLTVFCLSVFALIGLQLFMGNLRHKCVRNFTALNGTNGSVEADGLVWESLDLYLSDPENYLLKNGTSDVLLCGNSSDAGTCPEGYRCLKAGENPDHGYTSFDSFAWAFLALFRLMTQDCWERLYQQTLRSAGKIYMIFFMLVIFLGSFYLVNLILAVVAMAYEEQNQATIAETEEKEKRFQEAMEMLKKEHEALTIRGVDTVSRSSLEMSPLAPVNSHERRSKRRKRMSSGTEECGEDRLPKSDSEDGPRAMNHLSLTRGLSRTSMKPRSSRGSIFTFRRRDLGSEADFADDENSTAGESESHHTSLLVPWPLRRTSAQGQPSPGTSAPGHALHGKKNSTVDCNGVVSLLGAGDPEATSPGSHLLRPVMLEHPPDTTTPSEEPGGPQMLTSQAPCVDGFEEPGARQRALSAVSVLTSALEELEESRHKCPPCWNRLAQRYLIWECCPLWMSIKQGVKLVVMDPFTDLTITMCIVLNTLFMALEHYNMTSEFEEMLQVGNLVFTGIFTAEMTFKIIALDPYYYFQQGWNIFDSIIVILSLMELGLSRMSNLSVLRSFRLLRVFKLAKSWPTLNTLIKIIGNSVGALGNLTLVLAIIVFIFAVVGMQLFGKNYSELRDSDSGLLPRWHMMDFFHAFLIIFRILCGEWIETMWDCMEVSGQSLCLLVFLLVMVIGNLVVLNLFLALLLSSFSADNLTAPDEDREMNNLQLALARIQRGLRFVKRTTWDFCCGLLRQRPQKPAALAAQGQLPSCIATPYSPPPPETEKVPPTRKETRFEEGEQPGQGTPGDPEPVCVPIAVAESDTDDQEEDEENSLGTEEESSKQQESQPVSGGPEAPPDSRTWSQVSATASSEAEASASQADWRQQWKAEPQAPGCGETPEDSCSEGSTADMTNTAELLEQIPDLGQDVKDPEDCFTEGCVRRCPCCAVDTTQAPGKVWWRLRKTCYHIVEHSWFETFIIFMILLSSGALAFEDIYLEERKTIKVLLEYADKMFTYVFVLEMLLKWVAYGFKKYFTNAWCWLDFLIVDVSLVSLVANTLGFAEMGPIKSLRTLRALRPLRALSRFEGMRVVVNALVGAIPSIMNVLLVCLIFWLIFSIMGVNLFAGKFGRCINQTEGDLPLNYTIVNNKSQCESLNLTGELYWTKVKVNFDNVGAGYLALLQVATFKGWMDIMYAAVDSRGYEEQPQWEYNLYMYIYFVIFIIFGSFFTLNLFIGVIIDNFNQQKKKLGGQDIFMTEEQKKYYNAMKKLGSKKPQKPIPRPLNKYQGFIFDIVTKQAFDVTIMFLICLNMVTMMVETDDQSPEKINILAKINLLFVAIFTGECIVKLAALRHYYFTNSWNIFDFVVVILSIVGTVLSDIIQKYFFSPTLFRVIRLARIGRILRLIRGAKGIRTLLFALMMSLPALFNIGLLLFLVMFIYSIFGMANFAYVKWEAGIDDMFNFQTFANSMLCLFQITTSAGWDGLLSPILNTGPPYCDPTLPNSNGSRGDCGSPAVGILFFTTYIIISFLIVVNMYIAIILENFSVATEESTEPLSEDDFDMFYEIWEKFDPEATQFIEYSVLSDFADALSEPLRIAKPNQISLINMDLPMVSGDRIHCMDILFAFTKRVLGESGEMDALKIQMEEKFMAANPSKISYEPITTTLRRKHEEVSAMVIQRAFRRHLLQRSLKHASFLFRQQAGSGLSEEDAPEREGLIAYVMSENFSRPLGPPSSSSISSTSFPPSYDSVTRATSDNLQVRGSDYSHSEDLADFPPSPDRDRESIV
T2 sequence (O35505 whole entry): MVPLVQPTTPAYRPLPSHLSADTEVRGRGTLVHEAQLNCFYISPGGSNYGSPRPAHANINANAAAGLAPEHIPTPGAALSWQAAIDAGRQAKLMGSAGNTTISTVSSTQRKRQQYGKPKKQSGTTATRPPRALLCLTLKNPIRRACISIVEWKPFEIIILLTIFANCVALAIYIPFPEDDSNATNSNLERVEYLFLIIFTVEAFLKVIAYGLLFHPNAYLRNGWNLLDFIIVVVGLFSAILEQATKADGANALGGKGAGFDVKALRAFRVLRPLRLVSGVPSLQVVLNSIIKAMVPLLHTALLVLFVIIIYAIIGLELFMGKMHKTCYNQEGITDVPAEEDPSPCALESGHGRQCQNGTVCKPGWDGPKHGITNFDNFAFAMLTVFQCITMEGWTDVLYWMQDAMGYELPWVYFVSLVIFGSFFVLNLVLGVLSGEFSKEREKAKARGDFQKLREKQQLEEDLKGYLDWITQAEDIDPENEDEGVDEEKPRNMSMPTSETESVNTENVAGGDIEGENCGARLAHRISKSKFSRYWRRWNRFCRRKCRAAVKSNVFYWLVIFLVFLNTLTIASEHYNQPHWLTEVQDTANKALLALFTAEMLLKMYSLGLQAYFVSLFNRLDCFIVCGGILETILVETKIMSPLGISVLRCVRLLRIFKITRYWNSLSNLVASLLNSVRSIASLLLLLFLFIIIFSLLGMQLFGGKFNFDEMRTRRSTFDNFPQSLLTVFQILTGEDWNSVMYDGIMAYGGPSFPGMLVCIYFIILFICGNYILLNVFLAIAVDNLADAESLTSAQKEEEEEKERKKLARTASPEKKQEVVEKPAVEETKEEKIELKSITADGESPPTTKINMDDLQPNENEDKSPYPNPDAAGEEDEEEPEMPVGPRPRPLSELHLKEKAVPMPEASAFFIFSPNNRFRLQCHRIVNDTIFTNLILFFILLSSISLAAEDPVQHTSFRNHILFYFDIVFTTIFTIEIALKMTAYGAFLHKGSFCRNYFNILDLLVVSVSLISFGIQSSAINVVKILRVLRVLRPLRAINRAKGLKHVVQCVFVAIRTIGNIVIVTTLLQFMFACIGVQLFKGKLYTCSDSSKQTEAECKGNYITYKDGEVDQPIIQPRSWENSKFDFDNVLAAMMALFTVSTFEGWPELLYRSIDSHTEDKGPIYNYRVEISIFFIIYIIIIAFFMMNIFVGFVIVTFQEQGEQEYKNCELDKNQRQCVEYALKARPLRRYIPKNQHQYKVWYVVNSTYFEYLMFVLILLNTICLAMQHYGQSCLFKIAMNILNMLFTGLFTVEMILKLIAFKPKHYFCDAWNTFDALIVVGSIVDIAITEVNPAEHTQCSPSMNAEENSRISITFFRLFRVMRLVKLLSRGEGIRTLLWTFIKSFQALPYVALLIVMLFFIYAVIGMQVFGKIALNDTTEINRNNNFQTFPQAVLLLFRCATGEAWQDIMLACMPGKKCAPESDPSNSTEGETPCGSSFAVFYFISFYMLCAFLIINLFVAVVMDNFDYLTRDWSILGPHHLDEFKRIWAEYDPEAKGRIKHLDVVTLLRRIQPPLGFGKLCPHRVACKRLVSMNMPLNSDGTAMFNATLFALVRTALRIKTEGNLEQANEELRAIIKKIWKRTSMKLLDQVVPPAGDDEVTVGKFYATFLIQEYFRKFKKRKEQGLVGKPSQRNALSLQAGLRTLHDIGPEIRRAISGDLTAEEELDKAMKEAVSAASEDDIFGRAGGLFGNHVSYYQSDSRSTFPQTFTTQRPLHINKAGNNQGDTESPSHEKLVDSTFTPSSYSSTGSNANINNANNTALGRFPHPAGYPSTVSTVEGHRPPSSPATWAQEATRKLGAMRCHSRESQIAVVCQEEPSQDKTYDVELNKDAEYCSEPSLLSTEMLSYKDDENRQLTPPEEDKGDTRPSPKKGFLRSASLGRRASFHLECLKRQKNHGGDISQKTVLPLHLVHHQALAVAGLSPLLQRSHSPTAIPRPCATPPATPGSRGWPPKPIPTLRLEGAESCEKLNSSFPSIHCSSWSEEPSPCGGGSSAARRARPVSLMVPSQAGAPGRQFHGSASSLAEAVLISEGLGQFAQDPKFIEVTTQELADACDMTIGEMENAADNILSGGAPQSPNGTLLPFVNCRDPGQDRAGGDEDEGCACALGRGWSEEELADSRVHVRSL
hKv1.5 channel, sequence (P22460 whole entry): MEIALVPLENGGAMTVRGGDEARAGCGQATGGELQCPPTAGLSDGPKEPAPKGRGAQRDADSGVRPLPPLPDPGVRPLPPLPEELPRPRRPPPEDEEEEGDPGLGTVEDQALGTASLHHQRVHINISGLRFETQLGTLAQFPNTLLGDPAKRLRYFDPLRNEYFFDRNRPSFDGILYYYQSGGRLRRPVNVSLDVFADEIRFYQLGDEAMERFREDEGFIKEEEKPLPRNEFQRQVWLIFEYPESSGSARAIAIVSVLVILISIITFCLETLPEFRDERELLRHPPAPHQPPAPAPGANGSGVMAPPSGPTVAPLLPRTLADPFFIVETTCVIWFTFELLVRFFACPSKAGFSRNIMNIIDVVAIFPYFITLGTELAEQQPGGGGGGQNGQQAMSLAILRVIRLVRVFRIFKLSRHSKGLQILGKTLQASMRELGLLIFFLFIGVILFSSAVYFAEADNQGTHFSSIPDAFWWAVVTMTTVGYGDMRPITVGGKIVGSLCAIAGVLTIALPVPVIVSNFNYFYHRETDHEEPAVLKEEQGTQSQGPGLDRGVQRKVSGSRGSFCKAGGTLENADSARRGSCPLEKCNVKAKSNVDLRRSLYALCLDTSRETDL

With `Fc1ccc(C(OCCN2CCN(CCCc3ccccc3)CC2)c2ccc(F)cc2)cc1` [Vanoxerine, vanoxerine], the IC50 against rKv4.3 (Ito) channel was 12000 nM; on hHNa ion channel (read-out: IC50 estimate, block of hHNa (Hill equation fit)), 570 nM; in series [2], 4200 nM; against hERG (IKr) channel, 150 nM; in series [3] it was 530 nM; against hKv1.5 channel, 2000 nM. Besides, in series [1], the serum concentration result is given as “about 100 nM”. Also, at hHNa ion channel (Hill equation fit), the “Hill coefficient, block of hHNa” value is recorded as “greater than 2.0”. In addition, the “effect on the duration of the cardiac potential” value in the series on dog Purkinje fibers is recorded as “no effect; also recorded: did not prolong”.
